# Source: publication PMC3985299, “Single Ascending Dose Safety and Pharmacokinetics of CDRI-97/78: First-in-Human Study of a Novel Antimalarial Drug” (Malaria Research and Treatment, 2014)
# Test system: healthy human volunteers
# Assay: Single ascending dose study: biochemical parameters (liver function tests, serum electrolytes)
# Type: in vivo
# Set-up: Total serum bilirubin / Serum SGOT / Serum SGPT: unit not given here
# Excerpt: The study was approved by the Institute's Ethics Committee. The single ascending dose study and the pharmacokinetic study are registered with Central Trial Registry of India (CTRI/2012/07/002812; CTRI/2012/07/002832). Normal healthy male volunteers in the age group of 18–45 years were invited to join the trial. A detailed informed consent process of the volunteers was undertaken and screening of the volunteers was done after obtaining informed consent. They were recruited through contacts and hospital employees were excluded. The health status of the volunteers was determined by taking medical history, physical examination, routine haematology (haemoglobin, total lymphocyte count, differential count, and platelet count), clinical biochemistry (serum glutamic oxaloacetic transaminase (SGOT), serum glutamic pyruvic transaminase (SGPT), serum bilirubin, serum creatinine, blood urea, serum electrolytes, random blood sugar, total protein, and serum lipid profile), and urine and stool analysis (routine examination and microscopy). The volunteers were asked to report to the study site after 12 hours of fasting for the blood tests. Chest X-ray and 12-lead ECG were also taken. The participants were also screened for human immunodeficiency virus (HIV) and hepatitis B. The volunteers after giving informed consent were screened. The screening process was done latest within 1 month of admission for dosing. The volunteers who fulfilled the inclusion/exclusion criteria were admitted in the CPU the night before drug administration. Standardized dinner was served at 9 pm the night prior to dosing. On day 0, baseline blood sample for biochemical and haematological examination and stool and urine samples for routine and microscopy were taken. They received the study drug, according to the randomization sequence, under supervision. The empty packaging was returned to the container. The volunteers received drug as per randomization. Breakfast was given half an hour after drug administration. Subsequently, standardized lunch and dinner were served to the volunteers. The subjects were attached to a cardiac monitor and vital HR, BP, ECG, oxygen saturation, and RR were recorded. Corrected QT interval using Fridericia's formula was calculated. Adverse events were assessed at specific time points (0.5, 1, 2, 4, 6, 8, 12, and 24 hrs after medication). Unscheduled monitoring was undertaken whenever it felt necessary. The volunteers were discharged after 24 hrs and they had to return at 48 hrs and on the 7th day for follow-up. At the end of the 7th day, they were said to have completed the study. Routine haematological and biochemical investigations were performed at 0 hr, 24 hrs after drug administration, and on day 7. The study was monitored by a Data Safety Monitoring Board.
structure (smiles),measurement,setting,value
"C=C(c1ccc(OC(C)(C)COC(=O)CCC(=O)O)cc1)C1COC2(OO1)C1CC3CC(C1)CC2C3 (centres unmarked) [CDRI 97/78, Mono[2methyl2[3(1spiro[tricycle[3.3.1.13,7]decane2,3′-[1,2,4]trioxan] 6′-ylethenyl)phenoxy]propyl] ester]",Serum Alkaline phosphatase,"80 mg (n = 6), 24 hour",102.5 ± 30.09
same,Serum SGOT,"80 mg (n = 6), 24 hour",23.48 ± 2.88
same,Serum SGPT,"80 mg (n = 6), 24 hour",26.2 ± 6.6
same,Total serum bilirubin,"80 mg (n = 6), 24 hour",0.73 ± 0.24
same,Serum Alkaline phosphatase,"80 mg (n = 6), Baseline",95.5 ± 26.65
same,Serum SGOT,"80 mg (n = 6), Baseline",22.15 ± 6.3
same,Serum SGPT,"80 mg (n = 6), Baseline",21.88 ± 10.0
same,Total serum bilirubin,"80 mg (n = 6), Baseline",0.82 ± 0.24
same,Serum Alkaline phosphatase,"80 mg (n = 6), Day 7",106.83 ± 37.12
same,Serum SGOT,"80 mg (n = 6), Day 7",27.7 ± 6.1
same,Serum SGPT,"80 mg (n = 6), Day 7",21.8 ± 3.7
same,Total serum bilirubin,"80 mg (n = 6), Day 7",0.64 ± 0.23
same,Serum Alkaline phosphatase,"160 mg (n = 6), 24 hour",212 ± 67
same,Serum SGOT,"160 mg (n = 6), 24 hour",33.98 ± 9.69
same,Serum SGPT,"160 mg (n = 6), 24 hour",39.43 ± 8.08
same,Total serum bilirubin,"160 mg (n = 6), 24 hour",0.55 ± 0.07
same,Serum Alkaline phosphatase,"160 mg (n = 6), Baseline",211.5 ± 68.65
same,Serum SGOT,"160 mg (n = 6), Baseline",34.18 ± 7.89
same,Serum SGPT,"160 mg (n = 6), Baseline",37.21 ± 4.16
same,Total serum bilirubin,"160 mg (n = 6), Baseline",0.76 ± 0.39
same,Serum Alkaline phosphatase,"160 mg (n = 6), Day 7",207.17 ± 61.03
same,Serum SGOT,"160 mg (n = 6), Day 7",38.33 ± 8.91
same,Serum SGPT,"160 mg (n = 6), Day 7",44.5 ± 11.64
same,Total serum bilirubin,"160 mg (n = 6), Day 7",0.6 ± 0.06
same,Serum Alkaline phosphatase,"320 mg (n = 6), 24 hour",222.5 ± 34.55
same,Serum SGOT,"320 mg (n = 6), 24 hour",34.17 ± 7.76
same,Serum SGPT,"320 mg (n = 6), 24 hour",37.33 ± 8.87
same,Total serum bilirubin,"320 mg (n = 6), 24 hour",0.8 ± 0.4
same,Serum Alkaline phosphatase,"320 mg (n = 6), Baseline",242 ± 45.24
same,Serum SGOT,"320 mg (n = 6), Baseline",32.83 ± 5.15
same,Serum SGPT,"320 mg (n = 6), Baseline",33.83 ± 9.09
same,Total serum bilirubin,"320 mg (n = 6), Baseline",0.73 ± 0.52
same,Serum Alkaline phosphatase,"320 mg (n = 6), Day 7",235.83 ± 32.49
same,Serum SGOT,"320 mg (n = 6), Day 7",35 ± 8.53
same,Serum SGPT,"320 mg (n = 6), Day 7",38.33 ± 13.84
same,Total serum bilirubin,"320 mg (n = 6), Day 7",0.87 ± 0.59
same,Serum Alkaline phosphatase,"400 mg (n = 6), 24 hour",251.67 ± 47.59
same,Serum SGOT,"400 mg (n = 6), 24 hour",31.5 ± 4.5
same,Serum SGPT,"400 mg (n = 6), 24 hour",35.17 ± 4.12
same,Total serum bilirubin,"400 mg (n = 6), 24 hour",0.53 ± 0.05
same,Serum Alkaline phosphatase,"400 mg (n = 6), Baseline",232.83 ± 42
same,Serum SGOT,"400 mg (n = 6), Baseline",26.67 ± 6.62
same,Serum SGPT,"400 mg (n = 6), Baseline",29 ± 5.44
same,Total serum bilirubin,"400 mg (n = 6), Baseline",0.52 ± 0.04
same,Serum Alkaline phosphatase,"400 mg (n = 6), Day 7",242.83 ± 34.82
same,Serum SGOT,"400 mg (n = 6), Day 7",32.33 ± 8.87
same,Serum SGPT,"400 mg (n = 6), Day 7",38 ± 12.95
same,Total serum bilirubin,"400 mg (n = 6), Day 7",0.55 ± 0.08
same,Serum Alkaline phosphatase,"500 mg (n = 6), 24 hour",313 ± 124.5
same,Serum SGOT,"500 mg (n = 6), 24 hour",31.5 ± 6.02
same,Serum SGPT,"500 mg (n = 6), 24 hour",34.83 ± 11.07
same,Total serum bilirubin,"500 mg (n = 6), 24 hour",0.52 ± 0.04
same,Serum Alkaline phosphatase,"500 mg (n = 6), Baseline",321.17 ± 151
same,Serum SGOT,"500 mg (n = 6), Baseline",31.33 ± 8.76
same,Serum SGPT,"500 mg (n = 6), Baseline",32.83 ± 11.5
same,Total serum bilirubin,"500 mg (n = 6), Baseline",0.52 ± 0.04
same,Serum Alkaline phosphatase,"500 mg (n = 6), Day 7",339.67 ± 184.25
same,Serum SGOT,"500 mg (n = 6), Day 7",34 ± 6.00
same,Serum SGPT,"500 mg (n = 6), Day 7",35.33 ± 10.56
same,Total serum bilirubin,"500 mg (n = 6), Day 7",0.53 ± 0.05
same,Serum Alkaline phosphatase,"600 mg (n = 6), 24 hour",275.83 ± 61.29
same,Serum SGOT,"600 mg (n = 6), 24 hour",30.33 ± 6.74
same,Serum SGPT,"600 mg (n = 6), 24 hour",30.5 ± 8.46
same,Total serum bilirubin,"600 mg (n = 6), 24 hour",0.8 ± 0.59
same,Serum Alkaline phosphatase,"600 mg (n = 6), Baseline",272.5 ± 66.71
same,Serum SGOT,"600 mg (n = 6), Baseline",31.17 ± 6.3
same,Serum SGPT,"600 mg (n = 6), Baseline",30 ± 7.16
same,Total serum bilirubin,"600 mg (n = 6), Baseline",0.8 ± 0.54
same,Serum Alkaline phosphatase,"600 mg (n = 6), Day 7",274 ± 75.17
same,Serum SGOT,"600 mg (n = 6), Day 7",31.33 ± 5.78
same,Serum SGPT,"600 mg (n = 6), Day 7",33.17 ± 10.53
same,Total serum bilirubin,"600 mg (n = 6), Day 7",0.82 ± 0.59
same,Serum Alkaline phosphatase,"700 mg (n = 2), 24 hour",254 ± 56.57
same,Serum SGOT,"700 mg (n = 2), 24 hour",40 ± 4.24
same,Serum SGPT,"700 mg (n = 2), 24 hour",46.5 ± 4.95
same,Total serum bilirubin,"700 mg (n = 2), 24 hour",0.6 ± 0.14
same,Serum Alkaline phosphatase,"700 mg (n = 2), Baseline",261.5 ± 50.2
same,Serum SGOT,"700 mg (n = 2), Baseline",35.5 ± 0.71
same,Serum SGPT,"700 mg (n = 2), Baseline",46 ± 5.66
same,Total serum bilirubin,"700 mg (n = 2), Baseline",0.6 ± 0.14
same,Serum Alkaline phosphatase,"700 mg (n = 2), Day 7",260.5 ± 44.55
same,Serum SGOT,"700 mg (n = 2), Day 7",34.5 ± 0.71
same,Serum SGPT,"700 mg (n = 2), Day 7",40 ± 11.31
same,Total serum bilirubin,"700 mg (n = 2), Day 7",0.55 ± 0.07
same,Serum sodium and serum potassium values vs normal physiological ranges,"all time points, all groups",None of the volunteers had values outside the normal physiological ranges
same,"Serum bilirubin, SGOT and SGPT, intergroup comparisons","any time point of measurement, 80-700 mg and placebo",no significant difference
